Assay results taken from ChEMBL document CHEMBL1132743, “Synthesis and biological evaluation of novel piperidine carboxamide derived calpain inhibitors” (Bioorg Med Chem Lett, 2000).
Square brackets hold non-standard residues; d marks the D form. Peptide text beside a SMILES is read from it. * marks the point of attachment. ξ: configuration not given here. ξF = NC(Cc1ccccc1)C(=O)O; Cbz = O=C(OCc1ccccc1)*

Columns and labels:
[1] = biological target: T1, Calpain-1 catalytic subunit (Homo sapiens, UniProt P07384); assay: Inhibition of Suc-Leu-Tyr-AMC binding to human mu-calpain from erythrocytes; type: biochemical
T1 sequence (P07384 whole entry): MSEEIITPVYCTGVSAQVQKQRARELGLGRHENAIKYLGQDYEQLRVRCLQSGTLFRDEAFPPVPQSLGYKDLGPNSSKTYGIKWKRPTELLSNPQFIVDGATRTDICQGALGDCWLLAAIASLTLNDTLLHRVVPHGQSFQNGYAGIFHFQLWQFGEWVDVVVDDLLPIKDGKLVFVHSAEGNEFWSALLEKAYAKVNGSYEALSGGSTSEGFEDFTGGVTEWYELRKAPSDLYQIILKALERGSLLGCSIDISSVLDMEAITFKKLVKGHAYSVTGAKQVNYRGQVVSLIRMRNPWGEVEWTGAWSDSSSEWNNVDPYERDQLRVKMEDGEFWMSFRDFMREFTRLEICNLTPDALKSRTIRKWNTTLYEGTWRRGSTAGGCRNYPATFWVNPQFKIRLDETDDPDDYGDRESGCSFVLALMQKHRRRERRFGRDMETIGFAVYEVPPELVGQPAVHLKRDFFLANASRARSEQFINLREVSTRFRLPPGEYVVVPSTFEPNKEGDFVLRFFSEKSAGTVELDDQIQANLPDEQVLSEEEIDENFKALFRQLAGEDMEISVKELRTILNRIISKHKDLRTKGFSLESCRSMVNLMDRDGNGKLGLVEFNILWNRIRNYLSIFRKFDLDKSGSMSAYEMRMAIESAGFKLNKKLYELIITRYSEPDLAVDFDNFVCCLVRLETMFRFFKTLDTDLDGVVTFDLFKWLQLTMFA

[2] = biological target: Cathepsin B (Homo sapiens, UniProt P07858); assay: Inhibition of human Cathepsin B
[3] = species on record: Mus musculus; assay: Inhibitory activity of compound was tested for lethal convulsions induced by NMDA in mice; type: functional
[4] = Inhibition of calpain-mediated pp60src degradation in platelets; type: functional, Homo sapiens

Compound `NC(=O)C(=O)C(Cc1ccccc1)NC(=O)C1CCN(C(=O)/C=C/c2ccccc2)CC1` (stereo not given) has a Ki [1] of 460 nM.
In the case of `CCC(NC(=O)C1CCN(C(=O)/C=C/c2ccccc2)CC1)C(=O)C(N)=O` (stereo not given), the Ki [1] is reported as 33000 nM.
For `O=C(NCCCN1CCOCC1)C(=O)C(Cc1ccccc1)NC(=O)C1CCN(C(=O)c2ccc3ccccc3c2)CC1` (stereo not given), the Ki [1] was 960 nM.
With `CC(C)CC(NC(=O)C1CCN(C(=O)/C=C/c2ccccc2)CC1)C(=O)C(N)=O` (stereo not given) the Ki [1] was 1350 nM.
For `NC(=O)C(=O)C(Cc1ccccc1)NC(=O)C1CCN(S(=O)(=O)c2ccc3ccccc3c2)CC1` (stereo not given), the Ki [1] was 450 nM.
In the case of `NC(=O)C(=O)C(Cc1ccccc1)NC(=O)C1CCN(C(=O)c2cnc3ccccc3c2)CC1` (stereo not given), the Ki [1] is reported as 670 nM.
`NC(=O)C(=O)C(Cc1ccccc1)NC(=O)C1CCN(C(=O)c2cc3ccccc3s2)CC1` (stereo not given) gave a Ki [2] of 3200 nM, an ED50 [3] of 1 mg/kg and a Ki [1] of 9 nM.
`NC(=O)C(=O)C(Cc1ccccc1)NC(=O)C1CCN(Cc2ccc3ccccc3c2)CC1` (stereo not given) gave a Ki [1] of 13600 nM.
`NC(=O)C(=O)C(Cc1ccccc1)NC(=O)C1CCN(C(=O)c2ccccc2)CC1` (stereo not given) gave a Ki [1] of 560 nM.
Work on `NC(=O)C(=O)C(Cc1ccccc1)NC(=O)C1CCN(C(=O)c2ccc3ccccc3c2)CC1` (stereo not given) yielded a Ki [2] of 7300 nM, an ED50 [3] of 1.3 mg/kg and a Ki [1] of 30 nM. It also gave an IC50 [4] of 1800 nM.
In the case of `O=C(NCCCN1CCOCC1)C(=O)C(Cc1ccccc1)NC(=O)C1CCN(S(=O)(=O)c2ccc3ccccc3c2)CC1` (stereo not given), the Ki [1] is reported as 810 nM.
Compound `NC(=O)C(=O)C(Cc1ccccc1)NC(=O)C1CCN(C(=O)/C=C/c2ccncc2)CC1` (stereo not given) has a Ki [1] of 13500 nM.
Compound `CC(C)[C@H](NC(=O)OCc1ccccc1)C(=O)NC(C=O)Cc1ccccc1` (stereo partly drawn) (Cbz-Val-[ξF]-aldehyde) has an IC50 [4] of 700 nM.
In the case of `CCNC(=O)C(=O)C(Cc1ccccc1)NC(=O)C1CCN(S(=O)(=O)c2ccc3ccccc3c2)CC1` (stereo not given), the Ki [1] is reported as 800000 nM.
Compound `NC(=O)C(=O)C(Cc1ccccc1)NC(=O)C1CCN(C(=O)c2ccc3ncccc3c2)CC1` (stereo not given) has a Ki [1] of 160 nM.
